Assay results reported in paper PMC8880564, “Design, Synthesis, and Biological Evaluation of a Novel VEGFR-2 Inhibitor Based on a 1,2,5-Oxadiazole-2-Oxide Scaffold with MAPK Signaling Pathway Inhibition” (Pharmaceuticals, 2022).

How the values were obtained:
cancer cells = experiment: MTT anti-proliferative test of des-NO-releasing compounds; assay type: cell-based, human; details: at concentrations as high as 50 µM
Method: (§1) In addition, the morphological changes in 12b-treated cancer cell lines at concentrations of 6.25 and 12.50 µM are shown in Figure 6.
(§2) According to the procedures of Skehan et al. (with minor modifications), the cancer or normal cells were seeded in a 96-well plate (100 µL/well). After overnight incubation at 37 °C and 5% CO2, the cells were incubated with 50 µM of each tested compound or DMSO (0.5% v/v). After 48 h of incubation, MTT (3-(4,5-dimethylthiazoyl)-2,5-diphenyl-tetrazolium bromide) 5 mg/mL Phosphate-Buffered Saline (PBS) was added, and the plate was incubated for 4 h. After that, acidified sodium dodecyl sulfate (SDS) solution (10% SDS containing 0.01N HCl in 1× PBS) was used to solubilize formazan crystals. The absorbance was measured after 14 h of incubation at λ570–630 nm by a Biotek plate reader (Gen5™).

SKOV-3 = experiment: MTT cell viability assay; assay type: cell-based; details: Homo sapiens, SK-OV-3, Ovarian, 48 h, ± SD of triplicates
Method: as §1, §2

MDA-MB-231 = experiment: MTT cell viability assay; assay type: cell-based; details: Homo sapiens, Breast, 48 h, ± SD of triplicates
Method: as §1, §2

HT-29 = experiment: MTT cell viability assay; assay type: cell-based; details: Homo sapiens, Colon, 48 h, ± SD of triplicates
Method: as §1, §2

A2780 = experiment: MTT cell viability assay; assay type: cell-based; details: Homo sapiens, Ovarian, 48 h, ± SD of triplicates
Method: as §1, §2

A2780CP = experiment: MTT cell viability assay; assay type: cell-based; details: Homo sapiens, A2780C/P, Ovarian, 48 h, ± SD of triplicates
Method: as §1, §2

HepG2 = experiment: MTT cell viability assay; assay type: cell-based; details: Homo sapiens, Liver, 48 h, ± SD of triplicates
Method: as §1, §2

MCF-7 = experiment: MTT cell viability assay; assay type: cell-based; details: Homo sapiens, MCF7, Breast, 48 h, ± SD of triplicates
Method: as §1, §2

| SMILES | inhibition of the proliferation of cancer cells (cancer cells) | IC50 (SKOV-3) | IC50 (MDA-MB-231) | IC50 (HT-29) | IC50 (A2780) | IC50 (A2780CP) | IC50 (HepG2) | IC50 (MCF-7) |
| --- | --- | --- | --- | --- | --- | --- | --- | --- |
| Nc1ccc(Nc2nc(C(F)(F)F)nc3c2cnn3-c2ccc(Br)cc2)cc1 [15a, N1-(1-(4-bromophenyl)-6-(trifluoromethyl)-1H-pyrazolo[3,4-d]pyrimidin-4-yl)benzene-1,4-diamine] | did not inhibit the proliferation of cancer cells |  |  |  |  |  |  |  |
| Cc1nn(-c2ccc(Br)cc2)c2nc(C(F)(F)F)nc(Nc3ccc(N)cc3)c12 [15b, N1-(1-(4-bromophenyl)-3-methyl-6-(trifluoromethyl)-1H-pyrazolo[3,4-d]pyrimidin-4-yl)benzene-1,4-diamine] | did not inhibit the proliferation of cancer cells |  |  |  |  |  |  |  |
| CNC(=O)c1cc(Oc2ccc(NC(=O)Nc3ccc(Cl)c(C(F)(F)F)c3)cc2)ccn1 [Sorafenib, sorafenib, reference compound] |  | 16.9 ± 0.2 µM | 16.6 ± 0.3 µM | 11 ± 0.2 µM | 10.5 ± 0.5 µM | 15.2 ± 0.1 µM | 14 ± 0.4 µM | 5.1 ± 0.4 µM |
